Laboratory results: patent US9993479B2, “Trk-inhibiting compound” (ONO PHARMACEUTICAL CO., LTD., priority 2013, dated 2018)

test system: sodium monoiodoacetate-induced model rats; assay: Analgesic effect on sodium monoiodoacetate-induced model rats; format: in vivo, rat; details: MIA-induced model rats; test substance 0.1, 0.3 or 1 mg/kg orally twice a day day 14-23 and 3 h before measurement on day 24; Table 7 (positive control tramadol)

| SMILES | Percent improvement (%) |
| --- | --- |
| Cc1cn(-c2ccc(C(F)(F)F)cc2NC(=O)Nc2cnc(Oc3ccc(-c4cc(Cl)cnc4N)cc3)nc2)nn1 [Example 8-1, 1-(2-(4-(2-amino-5-chloropyridin-3-yl)phenoxy)pyrimidin-5-yl)-3-(2-(4-methyl-1H-1,2,3-triazol-1-yl)-5-(trifluoromethyl)phenyl)urea] | 60% |
| O=C(Nc1cnc(Oc2ccc(-c3cnn4cccnc34)cc2)nc1)Nc1cc(C(F)(F)F)ccc1-c1cccnc1 [Example 21-13, 1-(2-(4-(pyrazolo[1,5-a]pyrimidin-3-yl)phenoxy)pyrimidin-5-yl)-3-(2-(pyridin-3-yl)-5-(trifluoromethyl)phenyl)urea] | 66% |
| COc1ccn2ncc(-c3ccc(Oc4ncc(NC(=O)Nc5cc(C(F)(F)F)ccc5-c5cccnc5)cn4)cc3)c2n1 [Example 21-9, 1-(2-(4-(5-methoxypyrazolo[1,5-a]pyrimidin-3-yl)phenoxy)pyrimidin-5-yl)-3-(2-(pyridin-3-yl)-5-(trifluoromethyl)phenyl)urea] | 64% |
| Nc1ncc(Cl)cc1-c1ccc(Oc2ncc(NC(=O)Nc3ccc(C(F)(F)F)cc3Cl)cn2)cc1 [Example 15-6, 1-(2-(4-(2-amino-5-chloropyridin-3-yl)phenoxy)pyrimidin-5-yl)-3-(2-chloro-4-(trifluoromethyl)phenyl)urea] | 51% |
| Nc1ncc(Cl)cc1-c1ccc(Oc2ncc(NC(=O)Nc3cc(C(F)(F)F)ccc3-n3cccn3)cn2)cc1 [Example 7, 1-(2-(1H-pyrazol-1-yl)-5-(trifluoromethyl)phenyl)-3-(2-(4-(2-amino-5-chloropyridin-3-yl)phenoxy)pyrimidin-5-yl)urea] | 61% |
| Nc1ncc(F)cc1-c1ccc(Oc2ncc(NC(=O)Nc3cc(C(F)(F)F)ccc3-n3ccnn3)cn2)cc1 [Example 14-5, 1-(2-(1H-1,2,3-triazol-1-yl)-5-(trifluoromethyl)phenyl)-3-(2-(4-(2-amino-5-fluoropyridin-3-yl)phenoxy)pyrimidin-5-yl)urea] | 47% |

same assay, conditions: MIA-induced model rats; test substance 0.1, 0.3 or 1 mg/kg orally twice a day day 14-23 and 3 h before measurement on day 24; Table 8 (positive control morphine)

| SMILES | Percent improvement (%) |
| --- | --- |
| Nc1ncc(C(F)(F)F)cc1-c1ccc(Oc2ncc(NC(=O)Nc3cc(C(F)(F)F)ccc3-n3cc(Cl)cn3)cn2)cc1 [Example 15-87, 1-(2-{4-[2-amino-5-(trifluoromethyl)-3-pyridinyl]phenoxy}-5-pyrimidinyl)-3-[2-(4-chloro-1H-pyrazol-1-yl)-5-(trifluoromethyl)phenyl]urea] | 57% |
| Cc1cccc(-c2ccc(C(F)(F)F)cc2NC(=O)Nc2cnc(Oc3ccc(-c4cnn5ccc(N(C)C)nc45)cc3)nc2)c1 [Example 21-73, 1-(2-{4-[5-(dimethylamino)pyrazolo[1,5-a]pyrimidin-3-yl]phenoxy}-5-pyrimidinyl)-3-[3′-methyl-4-(trifluoromethyl)-2-biphenylyl]urea] | 62% |
| Nc1ncc(C(F)(F)F)cc1-c1ccc(Oc2ncc(NC(=O)Nc3cc(C(F)(F)F)ccc3-n3ccc(C(F)(F)F)n3)cn2)cc1 [Example 15-52, 1-(2-{4-[2-amino-5-(trifluoromethyl)-3-pyridinyl]phenoxy}-5-pyrimidinyl)-3-{5-(trifluoromethyl)-2-[3-(trifluoromethyl)-1H-pyrazol-1-yl]phenyl}urea] | 60% |
| CS(=O)(=O)c1ccc(C(F)(F)F)cc1NC(=O)Nc1cnc(Oc2ccc(-c3cc(C(F)(F)F)cnc3N)cc2)nc1 [Example 15-98, 1-(2-{4-[2-amino-5-(trifluoromethyl)-3-pyridinyl]phenoxy}-5-pyrimidinyl)-3-[2-(methylsulfonyl)-5-(trifluoromethyl)phenyl]urea] | 57% |
| Nc1ncc(Cl)cc1-c1ccc(Oc2ncc(NC(=O)Nc3ccc(C(F)(F)F)cc3C(F)(F)F)cn2)cc1 [Example 15-77, 1-{2-[4-(2-amino-5-chloro-3-pyridinyl)phenoxy]-5-pyrimidinyl}-3-[2,4-bis(trifluoromethyl)phenyl]urea] | 55% |
| CS(=O)(=O)c1ccc(C(F)(F)F)cc1NC(=O)Nc1cnc(Oc2ccc(-c3cc(Cl)cnc3N)cc2)nc1 [Example 15-104, 1-{2-[4-(2-amino-5-chloro-3-pyridinyl)phenoxy]-5-pyrimidinyl}-3-[2-(methylsulfonyl)-5-(trifluoromethyl)phenyl]urea] | 54% |
| Nc1ncc(F)cc1-c1ccc(Oc2ncc(NC(=O)Nc3cc(C(F)(F)F)ccc3-c3cccnc3)cn2)cc1 [Example 14-6, 1-(2-(4-(2-amino-5-fluoropyridin-3-yl)phenoxy)pyrimidin-5-yl)-3-(2-(pyridin-3-yl)-5-(trifluoromethyl)phenyl)urea] | 53% |
| CN(C)c1ccn2ncc(-c3ccc(Oc4ncc(NC(=O)Nc5cc(C(F)(F)F)ccc5-c5cccnc5)cn4)cc3)c2n1 [Example 21-37, 1-(2-{4-[5-(dimethylamino)pyrazolo[1,5-a]pyrimidin-3-yl]phenoxy}-5-pyrimidinyl)-3-[2-(3-pyridinyl)-5-(trifluoromethyl)phenyl]urea] | 67% |
| CN(C)c1ccn2ncc(-c3ccc(Oc4ncc(NC(=O)Nc5cc(C(F)(F)F)ccc5-c5ccnn5C)cn4)cc3)c2n1 [Example 21-51, 1-(2-{4-[5-(dimethylamino)pyrazolo[1,5-a]pyrimidin-3-yl]phenoxy}-5-pyrimidinyl)-3-[2-(1-methyl-1H-pyrazol-5-yl)-5-(trifluoromethyl)phenyl]urea] | 68% |
| Nc1ncc(Cl)cc1-c1ccc(Oc2ncc(NC(=O)Nc3cc(C(F)(F)F)ccc3-c3ccccc3)cn2)cc1 [Example 15-55, 1-{2-[4-(2-amino-5-chloro-3-pyridinyl)phenoxy]-5-pyrimidinyl}-3-[4-(trifluoromethyl)-2-biphenylyl]urea] | 62% |
| Nc1ncc(Cl)cc1-c1ccc(Oc2ncc(NC(=O)Nc3cc(C(F)(F)F)ccc3-n3cc(Cl)cn3)cn2)cc1 [Example 15-63, 1-{2-[4-(2-amino-5-chloro-3-pyridinyl)phenoxy]-5-pyrimidinyl}-3-[2-(4-chloro-1H-pyrazol-1-yl)-5-(trifluoromethyl)phenyl]urea] | 53% |
| CN(C)c1ccn2ncc(-c3ccc(Oc4ncc(NC(=O)Nc5cc(C(F)(F)F)ccc5-c5ccccc5)cn4)cc3)c2n1 [Example 21-70, 1-(2-{4-[5-(dimethylamino)pyrazolo[1,5-a]pyrimidin-3-yl]phenoxy}-5-pyrimidinyl)-3-[4-(trifluoromethyl)-2-biphenylyl]urea] | 61% |

same assay, conditions: MIA-induced model rats; tramadol 10 mg/kg subcutaneously 1 hour before measurement on day 24; Table 7

| SMILES | Percent improvement (%) |
| --- | --- |
| COc1cccc(C2(O)CCCCC2CN(C)C)c1 (stereo not shown) [Tramadol, tramadol, reference compound] | 43% |
